Laboratory results reported in patent US20230339866A1, “Quinazoline compounds and the use thereof in the treatment of cancer” (TROBIO THERAPEUTICS PTY LTD, priority 2020, published 2023).

Key:
Assay type in all cases: cell-based
[1] = system: A549 (NSCLC); assay: Anti-proliferative activity (Cell-Titre luminescence) against A549 non-small cell lung cancer cells; conditions: 72 h exposure, Cell-Titre luminescent reagent
Outline: (§1)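 EC50 derived by nonlinear variable-slope sigmoidal fit of luminescent Cell-Titre viability, normalised to vehicle control. Compound (0.1–30 μM, six concentrations) applied for 72 h after 24 h attachment at 37 °C, 5% CO2.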

[2] = system: A2780 (ovarian); assay: Anti-proliferative activity (Cell-Titre luminescence) against A2780 ovarian cancer cells; conditions: 72 h exposure, Cell-Titre luminescent reagent
Outline: as §1

[3] = system: SK-N-SH neuroblastoma cells; assay: Anti-proliferative activity (MTS assay) against SK-N-SH neuroblastoma cells
Procedure: The ability of compounds of the disclosure to inhibit the proliferation of SK-N-SH neuroblastoma cells was also assessed. […] Cell viability was normalised to control (vehicle alone) and dose response curves and IC50 values (Table 4) were determined using Graph Pad Prism 6.

Row | Molecule | IC50 ([1]; Homo sapiens, A549, 72 h) | IC50 ([2]; Homo sapiens, A2780, 72 h) | IC50 ([3]; Homo sapiens, SK-N-SH, 72 h) | IC50 [1] | IC50 [2] | IC50 ([3]; 72 hours)
1 | CN1CCN(CCNc2nc(Nc3cccc(F)c3)nc3ccccc23)CC1 [Compound 56, N^2-(3-fluorophenyl)-N^4-(2-(4-methylpiperazin-1-yl)ethyl)quinazoline-2,4-diamine] | 8.5 µM | 1.01 µM | 3.68 µM | – | – | –
2 | CN(C)CCNc1nc(-c2ccc[nH]2)nc2ccccc12 [Compound 97, N^1-(2-(1H-pyrrol-2-yl)quinazolin-4-yl)-N^2,N^2-dimethylethane-1,2-diamine] | 4.99 µM | 3.07 µM | 8.54 µM | – | – | –
3 | CN(C)CCNc1nc(-c2cc[nH]c2)nc2ccccc12 [Compound 98, N^1-(2-(1H-pyrrol-3-yl)quinazolin-4-yl)-N^2,N^2-dimethylethane-1,2-diamine] | 5.21 µM | 1.03 µM | 3.93 µM | – | – | –
4 | COc1ccc(CCNc2nc(NCCN3CCN(C)CC3)c3ccccc3n2)cc1 [Compound 54, N^2-(4-methoxyphenethyl)-N^4-(2-(4-methylpiperazin-1-yl)ethyl)quinazoline-2,4-diamine] | 4.65 µM | 3.8 µM | 1.15 µM | – | – | –
5 | CCc1ccc(CCNc2nc(NCCc3c[nH]cn3)c3ccccc3n2)cc1 [Compound 86, N^4-(2-(1H-imidazol-4-yl)ethyl)-N^2-(4-ethylphenethyl)quinazoline-2,4-diamine] | 3.23 µM | 1.07 µM | 2.17 µM | – | – | –
6 | CCc1ccc(CCNc2nc(NCCO)c3ccccc3n2)cc1 [Compound 89, 2-((2-((4-ethylphenethyl)amino)quinazolin-4-yl)amino)ethan-1-ol] | 6.1 µM | 2.73 µM | 3.48 µM | – | – | –
7 | Fc1cccc(Nc2nc(NCCc3c[nH]cn3)c3ccccc3n2)c1 [Compound 82, N^4-(2-(1H-imidazol-4-yl)ethyl)-N^2-(3-fluorophenyl)quinazoline-2,4-diamine] | 7.46 µM | 1.88 µM | 4.46 µM | – | – | –
8 | OCCNc1nc(NCc2ccccc2)nc2ccccc12 [Compound 31, 2-((2-(benzylamino)quinazolin-4-yl)amino)ethan-1-ol] | 3.61 µM | 1.21 µM | 14.3 µM | – | – | –
9 | COc1ccc(CCNc2nc(NCCc3c[nH]cn3)c3ccccc3n2)cc1 [Compound 85, N^4-(2-(1H-imidazol-4-yl)ethyl)-N^2-(4-methoxyphenethyl)quinazoline-2,4-diamine] | 6.81 µM | 1.74 µM | 4.28 µM | – | – | –
10 | CCc1ccc(CCNc2nc(NCCCO)c3ccccc3n2)cc1 [Compound 93, 3-((2-((4-ethylphenethyl)amino)quinazolin-4-yl)amino)propan-1-ol] | 10.1 µM | 2.65 µM | 4.43 µM | – | – | –
11 | COc1ccc(Nc2nc(NCCc3c[nH]cn3)c3ccccc3n2)cc1 [Compound 80, N^4-(2-(1H-imidazol-4-yl)ethyl)-N^2-(4-methoxyphenyl)quinazoline-2,4-diamine] | 4 µM | 3.33 µM | 2.87 µM | – | – | –
12 | CCc1ccc(Nc2nc(NCCCN(C)C)c3ccccc3n2)cc1 [Compound 71, N^4-(3-(dimethylamino)propyl)-N^2-(4-ethylphenyl)quinazoline-2,4-diamine] | 7.14 µM | 2.88 µM | 2.07 µM | – | – | –
13 | Fc1ccc(CCNc2nc(NCCc3c[nH]cn3)c3ccccc3n2)cc1 [Compound 88, N^4-(2-(1H-imidazol-4-yl)ethyl)-N^2-(4-fluorophenethyl)quinazoline-2,4-diamine] | 3.42 µM | 1.74 µM | 2.2 µM | – | – | –
14 | Fc1cccc(Nc2nc(NCCc3c[nH]cn3)c3ccccc3n2)c1 [Compound 83, N^4-(2-(1H-imidazol-4-yl)ethyl)-N^2-(3-fluorophenyl)quinazoline-2,4-diamine] | – | – | – | 9.16 µM | 2.2 µM | 3.88 µM
15 | N^4-(2-(dimethylamino)ethyl)-N^2-(3-(trifluoromethyl)phenethyl)quinazoline-2,4-diamine [Compound 64] | – | – | – | 2.87 µM | 2.38 µM | 1.45 µM
16 | CN(C)CCNc1nc(-c2ccsc2)nc2ccccc12 [Compound 96, N^1,N^1-dimethyl-N^2-(2-(thiophen-3-yl)quinazolin-4-yl)ethane-1,2-diamine] | 6.7 µM | 5.52 µM | 8.77 µM | – | – | –

Continued by falling IC50 ([1]; Homo sapiens, A549, 72 h), values first:

Row | IC50 ([1]; Homo sapiens, A549, 72 h) | IC50 ([2]; Homo sapiens, A2780, 72 h) | IC50 ([3]; Homo sapiens, SK-N-SH, 72 h) | IC50 [1] | IC50 [2] | IC50 ([3]; 72 hours) | Molecule
17 | 3.1 µM | 1.2 µM | 3.82 µM | – | – | – | CCc1ccc(Nc2nc(NCCc3c[nH]cn3)c3ccccc3n2)cc1 [Compound 81, N^4-(2-(1H-imidazol-4-yl)ethyl)-N^2-(4-ethylphenyl)quinazoline-2,4-diamine]
18 | 3.07 µM | 1.39 µM | 1.4 µM | – | – | – | CN1CCN(CCNc2nc(NCCc3cccc(C(F)(F)F)c3)nc3ccccc23)CC1 [Compound 51, N^4-(2-(4-methylpiperazin-1-yl)ethyl)-N^2-(3-(trifluoromethyl)phenethyl)quinazoline-2,4-diamine]
19 | 3.06 µM | 0.855 µM | 2.22 µM | – | – | – | CN1CCN(CCNc2nc(Nc3cccc(C(F)(F)F)c3)nc3ccccc23)CC1 [Compound 41, N^4-(2-(4-methylpiperazin-1-yl)ethyl)-N^2-(3-(trifluoromethyl)phenyl)quinazoline-2,4-diamine]
20 | 3.04 µM | 3.49 µM | 2.36 µM | – | – | – | CN(C)CCCNc1nc(NCCc2cccc(F)c2)nc2ccccc12 [Compound 77, N^4-(3-(dimethylamino)propyl)-N^2-(3-fluorophenethyl)quinazoline-2,4-diamine]
21 | 2.74 µM | 2.21 µM | 2.61 µM | – | – | – | CN(C)CCNc1nc(Nc2cccc(C(F)(F)F)c2)nc2ccccc12 [Compound 60, N^4-(2-(dimethylamino)ethyl)-N^2-(3-(trifluoromethyl)phenyl)quinazoline-2,4-diamine]
22 | 2.74 µM | 0.901 µM | 1.87 µM | – | – | – | CC(C)C(CNc1nc(-c2cc[nH]c2)nc2ccccc12)N1CCN(C)CC1 (stereo not drawn) [Compound 5, N-(3-methyl-2-(4-methylpiperazin-1-yl)butyl)-2-(1H-pyrrol-3-yl)quinazolin-4-amine]
23 | 2.74 µM | 0.797 µM | 2.39 µM | – | – | – | CN(C)CCCNc1nc(Nc2cccc(C(F)(F)F)c2)nc2ccccc12 [Compound 69, N^4-(3-(dimethylamino)propyl)-N^2-(3-(trifluoromethyl)phenyl)quinazoline-2,4-diamine]
24 | 2.33 µM | 2.95 µM | 1.86 µM | – | – | – | CN(C)CCCNc1nc(NCCc2ccc(F)cc2)nc2ccccc12 [Compound 78, N^4-(3-(dimethylamino)propyl)-N^2-(4-fluorophenethyl)quinazoline-2,4-diamine]
25 | 2.25 µM | 2.74 µM | 0.68 µM | – | – | – | Cc1cccc(CCNc2nc(NCCN3CCN(C)CC3)c3ccccc3n2)c1 [Compound 124, N^2-(3-methylphenethyl)-N^4-(2-(4-methylpiperazin-1-yl)ethyl)quinazoline-2,4-diamine]
26 | 1.76 µM | 2.78 µM | 2.62 µM | – | – | – | OCCCNc1nc(NCCc2ccc(F)cc2)nc2ccccc12 [Compound 95, 3-((2-((4-fluorophenethyl)amino)quinazolin-4-yl)amino)propan-1-ol]
27 | 1.7 µM | 1.16 µM | 1.24 µM | – | – | – | CN(C)CCCNc1nc(NCCc2cccc(C(F)(F)F)c2)nc2ccccc12 [Compound 74, N^4-(3-(dimethylamino)propyl)-N^2-(3-(trifluoromethyl)phenethyl)quinazoline-2,4-diamine]
28 | 1.62 µM | 0.968 µM | 0.73 µM | – | – | – | CN1CCN(CCNc2nc(NCCc3cccc(Cl)c3)nc3ccccc23)CC1 [Compound 125, N^2-(3-chlorophenethyl)-N^4-(2-(4-methylpiperazin-1-yl)ethyl)quinazoline-2,4-diamine]
29 | 1.49 µM | 0.467 µM | 1.47 µM | – | – | – | COc1ccc(CCNc2nc(NCCCN(C)C)c3ccccc3n2)cc1 [Compound 75, N^4-(3-(dimethylamino)propyl)-N^2-(4-methoxyphenethyl)quinazoline-2,4-diamine]
30 | 1.39 µM | 1.51 µM | 1.26 µM | – | – | – | FC(F)(F)c1cccc(CCNc2nc(NCCc3c[nH]cn3)c3ccccc3n2)c1 [Compound 84, N^4-(2-(1H-imidazol-4-yl)ethyl)-N^2-(3-(trifluoromethyl)phenethyl)quinazoline-2,4-diamine]
31 | 1 µM | 0.316 µM | 0.42 µM | – | – | – | CN1CCN(CCNc2nc(NCCc3ccc(C(C)(C)C)cc3)nc3ccccc23)CC1 [Compound 129, N^2-(4-(tert-butyl)phenethyl)-N^4-(2-(4-methylpiperazin-1-yl)ethyl)quinazoline-2,4-diamine]
32 | 0.943 µM | 0.606 µM | 0.57 µM | – | – | – | CC(C)c1ccc(CCNc2nc(NCCN3CCN(C)CC3)c3ccccc3n2)cc1 [Compound 128, N^2-(4-isopropylphenethyl)-N^4-(2-(4-methylpiperazin-1-yl)ethyl)quinazoline-2,4-diamine]
33 | 0.938 µM | 0.767 µM | 0.46 µM | – | – | – | FC(F)(F)c1cccc(CCNc2nc(NCCN3CCNCC3)c3ccccc3n2)c1 [Compound 112, N^4-(2-(piperazin-1-yl)ethyl)-N^2-(3-(trifluoromethyl)phenethyl)quinazoline-2,4-diamine]
